Source: patent US20250313535A1, “ALPHA 4 BETA 7 INTEGRIN MODULATORS AND USES THEREOF” (DICE MOLECULES SV, INC., priority 2022, published 2025)
pIC50: −log10 of the molar value. Read-outs that look alike come from different tables or passages of the source.

What was measured:
α4β1 integrin = α4β1 integrin (Homo sapiens (Human), UniProt P05556+P13612); test: Integrin Adhesion Assay: Protocol 5 (VCAM-coated plate, RPMI-8866 cells with stable LOF mutation of the ITGB7 gene); type: cell-based
Experimental: (§1) Integrin Adhesion Assay Using Genetically Modified Cells Generating Stable Cell Lines with ITGB1 or ITGB7 Knockout (Protocol 4 and Protocol 5)
(§2) To obtain subclones of the RPMI-8866 cell line (Sigma-Aldrich, St. Louis, MO) that were individually deficient in either integrin β1 or integrin β 7, CRISPR/Cas9 technology was employed (PMID: 30108345). Specifically, a Neon™ Transfection System System 10 μL Kit and the Neon™ Transfection device (both from ThermoFisher Scientific) were used.
(§3) The protocol was performed following the manufacturer instructions, described in https://www.thermofisher.com/document-connect/document-connect.html?url=https % 3A%2F%2F assets.thermofisher.com%2FTFS-Assets%2FLSG%2Fmanuals%2FMAN0017066_TrueCut Cas9_Protein_v2_UG.pdf, which is incorporated by reference herein in its entirety.
(§4) RPMI-8866 cells were transferred to a flask the day before transfection, at a confluence of 5×10^5 cells/mL. The cells were washed with PBS and resuspended in buffer R (Neon™ Transfection System, Invitrogen) to 2×10^5 cells/10 uL for each reaction. The TrueCut™ HiFi Cas9 Protein (1250 ng per reaction) was mixed with TrueGuide™ sgRNA (7.5 pmoles each/pool of 3 sequences, table 1) (ThermoFisher Scientific). This mix was combined with the RPMI-8866 cells and electroporated on the Neon system at 1700V/20 ms/1 pulse. Transfected cells were allowed to recover in 500 μL pre-warmed cRMPI media (RPMI-1640 media with 10% FBS, 100 U/ml Penicillin-Streptomycin) at 37° C., 5% CO2 for 24 hours. At that time, an extra 500 μL of pre-warmed cRMPI media was added, and cells were incubated for another 24 hours.
(§5) For flow cytometry analysis, 100 μL of the transfected cells were collected and stained with anti-itga4 (Clone: 9F10, PE, BD Pharmingen™), anti-itgb 1 (Clone: (TS2/16), Super Bright 436, eBioscience), anti-itgb7 (Clone: FIB504, Brilliant Violet 650, BD Pharmingen™) and viability dye (LIVE/DEAD™ Fixable Green Dead Cell Stain, Invitrogen™). An Attune NxT Flow Cytometer was used to analyze the CRISPR-transfected cells. The flow cytometry results were analyzed using FlowJo™ v10.8.1 Software (BD Life Sciences). Fluorescence minus one (FMO) controls were used to select appropriate gates for data analysis.
(§6) To generate an individual clones of cells deficient in either ITGB7 or ITGB1 by limiting dilution assay, the transfected cells were resuspended at 5 cells/mL and seeded in 384 well plates. Outgrowth of clones was monitored using a microscope, and 24 clones were transferred for expansion. Expression of either integrin was verified by flow cytometry in each of the clones. One clone of each integrin b7 or the integrin b1 knockout was chosen, expanded and aliquots were frozen in vapor phase liquid nitrogen.
Integrin Adhesion Assay: Protocol 5
VCAM (R&D Systems, 0.1 ug) was diluted in 50 μL PBS, added to each well of an opaque ELISA plate (Thermo), and incubated overnight at 4° C. Coated plates were washed once with PBS and then blocked with 200 μL of assay buffer (10 mM HEPES, 150 mM NaCl, 1 mM MnCl2, 0.1 mM CaCl2), 1% BSA) for 1 hour at 37° C. and 5% CO2. After incubation, buffer was aspirated from the plates and 50 μL of fresh assay buffer was added. Compounds were added by compounds dispenser (Tecan) and DMSO concentration was normalized to 1% across each plate. 50 μL of RPMI-8866 cells with a stable LOF mutation of the ITGB7 gene (2×10^6 per mL) were added to each well and the plates were incubated for 1 hour at 37° C. and 5% CO2. After incubation, plates were allowed to cool to RT for 10 minutes before being washed four times in assay buffer by an automated plate washer (BioTek). After washing, 100 μL of a 1:1 mixture of assay buffer and CellTiter GLO 2.0 reagent (Promega) were added to each well. Plates were mixed for 2 minutes at 1000 rpm and then allowed to incubate an additional 10 minutes before reading out luminescence on a Tecan Spark plate reader. […]

α4β7 integrin = α4β7 integrin (Homo sapiens (Human), UniProt P13612+P26010); test: Integrin Adhesion Assay: Protocol 4 (MAdCAM-coated plate, RPMI-8866 cells with stable LOF mutation of the ITGB1 gene); type: cell-based
Experimental: as §1, §2, §3, §4, §5, §6
Integrin Adhesion Assay: Protocol 4
MAdCAM (R&D Systems, 0.1 ug) was diluted in 50 μL PBS, added to each well of an opaque ELISA plate (Thermo), and incubated overnight at 4° C. Coated plates were washed once with PBS and then blocked with 200 μL of assay buffer (10 mM HEPES, 150 mM NaCl, 1 mM MnCl2, 0.1 mM CaCl2), 1% BSA) for 1 hour at 37° C. and 5% CO2. After incubation, buffer was aspirated from the plates and 50 μL of fresh assay buffer was added. Compounds were added using a compounds dispenser (Tecan), and DMSO concentration was normalized to 1% across each plate. 50 μL of RPMI-8866 cells with a stable loss of function (LOF) mutation of the ITGB1 gene (2×10^6 per mL) were added to each well and the plates were incubated for 1 hour at 37° C. at a CO2 concentration of 5%. After incubation, plates were allowed to cool to RT for 10 minutes before being washed four times in assay buffer by an automated plate washer (BioTek). After washing, 100 μL of a 1:1 mixture of assay buffer and CellTiter GLO 2.0 reagent (Promega) were added to each well. Plates were mixed for 2 minutes at 1000 rpm and then allowed to incubate an additional 10 minutes before reading out luminescence on a Tecan Spark plate reader. […]

[1] = RPMI-8866 cells with stable LOF mutation of the ITGB7 gene, read-out: Mean IC50 α4β1 KO^b
[2] = RPMI-8866 cells with stable LOF mutation of the ITGB1 gene, read-out: Mean IC50 α4β7 KO^a
[3] = Protocol 5, RPMI-8866 cells with LOF mutation of ITGB7, VCAM, read-out: Mean IC50 α4β1 KO
[4] = Protocol 4, RPMI-8866 cells with LOF mutation of ITGB1, MAdCAM, read-out: Mean IC50 α4β7 KO

Chain of α4β1 integrin (P13612 34-1032): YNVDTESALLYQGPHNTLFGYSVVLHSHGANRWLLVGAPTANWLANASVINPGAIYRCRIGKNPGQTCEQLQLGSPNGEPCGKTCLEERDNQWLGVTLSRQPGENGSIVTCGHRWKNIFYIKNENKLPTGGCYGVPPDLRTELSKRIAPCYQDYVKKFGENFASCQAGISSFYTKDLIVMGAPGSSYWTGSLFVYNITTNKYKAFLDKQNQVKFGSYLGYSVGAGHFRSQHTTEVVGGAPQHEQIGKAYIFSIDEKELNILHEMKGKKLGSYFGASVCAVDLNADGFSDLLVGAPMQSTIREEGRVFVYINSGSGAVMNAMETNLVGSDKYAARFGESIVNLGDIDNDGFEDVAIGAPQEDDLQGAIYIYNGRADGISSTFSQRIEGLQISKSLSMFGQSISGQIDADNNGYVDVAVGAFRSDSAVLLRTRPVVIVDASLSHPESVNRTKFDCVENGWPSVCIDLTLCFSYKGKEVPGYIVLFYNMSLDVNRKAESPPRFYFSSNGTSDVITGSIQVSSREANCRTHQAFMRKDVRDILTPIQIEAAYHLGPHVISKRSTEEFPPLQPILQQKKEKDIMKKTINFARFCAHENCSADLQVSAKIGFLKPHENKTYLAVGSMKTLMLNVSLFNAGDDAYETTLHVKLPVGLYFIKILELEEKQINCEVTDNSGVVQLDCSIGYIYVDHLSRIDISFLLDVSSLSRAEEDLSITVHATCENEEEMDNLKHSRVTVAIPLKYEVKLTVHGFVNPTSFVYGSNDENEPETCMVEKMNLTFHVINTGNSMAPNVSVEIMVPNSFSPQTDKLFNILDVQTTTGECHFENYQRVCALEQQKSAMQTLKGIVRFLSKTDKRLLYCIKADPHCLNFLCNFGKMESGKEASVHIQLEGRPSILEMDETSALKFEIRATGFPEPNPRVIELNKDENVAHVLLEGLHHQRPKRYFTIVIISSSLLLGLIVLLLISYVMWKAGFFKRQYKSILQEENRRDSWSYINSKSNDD
Chain of α4β1 integrin (P05556 21-798): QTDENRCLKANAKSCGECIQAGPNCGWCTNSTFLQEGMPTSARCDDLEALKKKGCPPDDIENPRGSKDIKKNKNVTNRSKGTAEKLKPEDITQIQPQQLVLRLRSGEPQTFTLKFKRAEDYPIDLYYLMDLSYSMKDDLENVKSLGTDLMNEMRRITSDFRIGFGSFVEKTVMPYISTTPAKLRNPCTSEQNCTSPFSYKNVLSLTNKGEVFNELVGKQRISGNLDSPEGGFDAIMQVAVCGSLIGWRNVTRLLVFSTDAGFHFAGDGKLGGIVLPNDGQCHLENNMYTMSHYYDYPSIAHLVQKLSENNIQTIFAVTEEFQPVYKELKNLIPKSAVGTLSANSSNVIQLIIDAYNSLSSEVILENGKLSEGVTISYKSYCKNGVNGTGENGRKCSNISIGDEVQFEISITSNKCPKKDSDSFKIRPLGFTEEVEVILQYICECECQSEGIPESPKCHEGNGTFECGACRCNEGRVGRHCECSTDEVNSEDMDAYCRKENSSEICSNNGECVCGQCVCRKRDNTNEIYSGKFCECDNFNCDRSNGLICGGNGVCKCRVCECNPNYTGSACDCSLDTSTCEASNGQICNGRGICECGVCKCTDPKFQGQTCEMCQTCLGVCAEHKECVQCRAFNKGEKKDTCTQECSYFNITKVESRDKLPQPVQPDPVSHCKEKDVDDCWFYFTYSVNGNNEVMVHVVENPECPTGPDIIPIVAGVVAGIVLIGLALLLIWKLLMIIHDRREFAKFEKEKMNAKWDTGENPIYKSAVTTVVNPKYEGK
Chain of α4β7 integrin (P13612 34-1032): as the sequence (P13612 34-1032) above
Chain of α4β7 integrin (P26010 20-798): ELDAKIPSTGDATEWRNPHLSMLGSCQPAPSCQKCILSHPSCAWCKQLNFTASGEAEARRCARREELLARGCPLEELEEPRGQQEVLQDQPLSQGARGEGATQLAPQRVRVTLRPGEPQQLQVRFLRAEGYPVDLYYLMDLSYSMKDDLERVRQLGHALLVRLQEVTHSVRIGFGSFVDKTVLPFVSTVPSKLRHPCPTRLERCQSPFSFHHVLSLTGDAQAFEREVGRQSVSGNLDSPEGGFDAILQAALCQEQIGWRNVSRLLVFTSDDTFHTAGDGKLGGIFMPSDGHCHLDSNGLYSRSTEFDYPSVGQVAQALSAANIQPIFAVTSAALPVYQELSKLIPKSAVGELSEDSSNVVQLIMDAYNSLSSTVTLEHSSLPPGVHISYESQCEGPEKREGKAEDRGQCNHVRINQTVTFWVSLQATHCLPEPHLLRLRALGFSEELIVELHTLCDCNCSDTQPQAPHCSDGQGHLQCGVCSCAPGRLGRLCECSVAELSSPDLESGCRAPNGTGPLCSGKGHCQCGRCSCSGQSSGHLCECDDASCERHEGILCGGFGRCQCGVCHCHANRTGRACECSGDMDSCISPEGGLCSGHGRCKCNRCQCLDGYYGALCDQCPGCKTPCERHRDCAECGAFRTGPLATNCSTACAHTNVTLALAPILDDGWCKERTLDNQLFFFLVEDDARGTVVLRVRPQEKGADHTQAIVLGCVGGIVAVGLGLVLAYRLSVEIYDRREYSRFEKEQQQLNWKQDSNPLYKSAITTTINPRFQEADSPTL

Structure (SMILES)	pIC50 (α4β1 integrin; [1])	pIC50 (α4β7 integrin; [2])	pIC50 (α4β1 integrin; [3])	pIC50 (α4β7 integrin; [4])
COc1ccc(CN2CCCC2C)c(OC)c1-c1cccc2c(C[C@H](NC(=O)c3c(C)cccc3F)C(=O)O)cccc12 (stereo partly drawn) [Compound 633]	7.00 to 8.00	> 8.00	–	–
O=C(N[C@@H](Cc1cccc2c(-c3cccc4cccnc34)cccc12)C(=O)O)c1c(F)cccc1F [Compound 500]	< 6.00	< 6.00	–	–
COc1cc2ncccc2c(C)c1-c1cccc2c(C[C@H](NC(=O)C3(C(F)(F)F)CCN(CC(F)(F)F)CC3)C(=O)O)cccc12 [Compound 738]	–	–	< 6.00	7.00 to 8.00
COc1ccc(CN2CCC(F)(F)C2)c(OC)c1-c1cccc2c(C[C@H](NC(=O)c3c(C)cccc3F)C(=O)O)cccc12 [Compound 597]	< 6.00	7.00 to 8.00	–	–
COc1ccc(CN2CCCCC2)c(OC)c1-c1cccc2c(C[C@H](NC(=O)c3c(F)cccc3C(C)C)C(=O)O)cccc12 [Compound 571]	< 6.00	> 8.00	–	–
Cn1c(=O)c(-c2cccc3c(C[C@H](NC(=O)C4(C(F)(F)F)CCN(CC5(F)CCC5)CC4)C(=O)O)cccc23)c(C(F)(F)F)c2ccccc21 [Compound 533]	< 6.00	7.00 to 8.00	–	–
Cc1cccc(F)c1C(=O)N[C@@H](Cc1cccc2c(-c3c(C(F)(F)F)c4cc(CCN5CCC(F)(F)CC5)ccc4n(C)c3=O)cccc12)C(=O)O [Compound 714]	–	–	< 6.00	7.00 to 8.00
COc1c(CN2CCCCC2)cc2cccnc2c1-c1cccc2c(C[C@H](NC(=O)C3(C(F)(F)F)CCN(CC(F)(F)F)CC3)C(=O)O)cccc12 [Compound 792]	–	–	< 6.00	7.00 to 8.00
O=C(O)[C@H](Cc1cccc2c(-c3cccc4c(CN5CCCCC5)cncc34)cccc12)NC(=O)C1(C(F)(F)F)CCN(CC(F)(F)F)CC1 [Compound 803]	–	–	< 6.00	7.00 to 8.00
Cn1c(=O)c(-c2cccc3c(C[C@H](NC(=O)C4(C(F)(F)F)CCN([C@H]5CCC(F)(F)C5)CC4)C(=O)O)cccc23)c(C(F)(F)F)c2ccccc21 (single isomer, unassigned) [Compound 495]	< 6.00	7.00 to 8.00	–	–

Now from value to molecule:

pIC50 (α4β1 integrin; [1])	pIC50 (α4β7 integrin; [2])	pIC50 (α4β1 integrin; [3])	pIC50 (α4β7 integrin; [4])	Structure (SMILES)
–	–	6.00 to 7.00	> 8.00	COc1ccc(CN2CCC(F)CC2)cc1-c1cccc2c(C[C@H](NC(=O)C3(C(F)(F)F)CCN(CC(F)F)CC3)C(=O)O)cccc12 [Compound 940]
–	–	< 6.00	7.00 to 8.00	COc1ccc2c(c1-c1cccc3c(C[C@H](NC(=O)c4c(C)cccc4F)C(=O)O)cccc13)CCN(CC(F)(F)F)C2 [Compound 997]
–	–	6.00 to 7.00	> 8.00	O=C(O)[C@H](Cc1cccc2c(-c3ncc(CN4CCC(F)(F)CC4)cc3C3CC3)cccc12)NC(=O)C1(C(F)(F)F)CCN(CC(F)F)CC1 [Compound 951]
–	–	< 6.00	> 8.00	O=C(O)[C@H](Cc1cccc2c(-c3ncc(CN4CCC5(CCC5)C4)c4ccccc34)cccc12)NC(=O)C1(C(F)(F)F)CCN(CC(F)(F)F)CC1 [Compound 886]
–	–	< 6.00	7.00 to 8.00	O=C(O)[C@H](Cc1cccc2c(-c3ncc(CN4CCOC(C(F)(F)F)C4)c4ccccc34)cccc12)NC(=O)C1(C(F)(F)F)CCN(CC(F)F)CC1 (stereo partly drawn) [Compound 858]
